pIC50: −log10 of the molar value. Where two headings read alike, the source gives them in different places.
Columns and labels:
SRS-A = experiment: Anti-SRS-A action, Magnus method using the isolated guinea pig ileum; details: crude SRS-A after 3 minutes; for pIC50: read-out: 50% inhibition concentration
Experimental: The anti-SRS-A activity of the compounds of the present invention was measured by Magnus method using the isolated guinea pig ileum. An extracted ileum of guinea pig was hung within a Magnus vessel which was maintained at 31±1° C. and then pre-treated with mepiramine to remove any effect by histamine. Test compound was administered in a dose of 3×10^-5 to 10^-3 M, and after 3 minutes, a previously prepared crude SRS-A was acted thereto, and then, the shrink rate (%) of the ileum was measured.

[1] = system: passive cutaneous anaphylaxis (PCA); experiment: PCA response in rats; type: in vivo, Wistar male rats; details: Rattus norvegicus, read-out: 50% inhibiting dose (ED50) in the rat PCA
Experimental: [1] PCA response in rats:
Wistar male rats weighing 190-220 g were used. A diluted anti-dinitrophenyl-Ascalis (DNP-As) rat serum (each 0.1 ml) was intracutaneously injected into the back of the animals, by which the animals were passively sensitized. After 48 hours, Evans blue liquid (1.0 ml) containing DNP-As (20 mg, as a protein) was intravenously injected to the animals to induce PCA.
After 30 minutes, rats were killed, and the skin at the response region was peeled off, and the amount of color was measured spectrophotometrically. Test compounds were administered 30 minutes (in case of intraperitoneal injection) or one hour (in case of oral administration) before the challenge with the antigen.
The data of the references: disodium chromoglycate (SDCG) and Tranilast are also shown therein.

[2] = Toxicity test in mice (LD50, Litchfield-Wilcoxon method); details: mouse, in vivo, po; mortality during 7 days; ddY male mice; read-out: 50% lethal dose (LD50)
[3] = as above; details: mouse, in vivo, ip; mortality during 7 days; ddY male mice; read-out: 50% lethal dose (LD50)
Experimental: The test compound was suspended in 0.5% carboxymethylcellulose solution, and the suspension was intraperitoneally administered to ddY male mice (weighing 20-25 g, one group: 10 mice). Based on the total mortality during 7 days after the administration of the test compound, the 50% lethal dose (LD50) was calculated by Litchfield-Wilcoxon method. The data of reference (Tranilast) are also shown therein.

[4] = ip, 30 minutes before the challenge with the antigen
[5] = po, 1 h, p.o., one hour before the challenge with the antigen

Compound | pIC50 (SRS-A) | Inhibition rate (SRS-A; test compd. 10^-3 M) [%] | ED50 [1, 4] [mg/kg] | ED50 [1, 5] [mg/kg] | LD50 at 168 h [2] [mg/kg] | LD50 at 168 h [3] [mg/kg] | Inhibition rate (SRS-A; test compd. 3 × 10^-4 M) [%] | Inhibition rate (SRS-A; test compd. 10^-4 M) [%] | Inhibition rate (SRS-A; test compd. 3 × 10^-5 M) [%]
O=C(O)c1cc(=O)c2c(OCC(O)COc3cccc4oc(C(=O)O)cc(=O)c34)cccc2o1 [DSCG, disodium chromoglycate, reference compound] | < 3.00 | 6 | 3.3 | > 200 |  |  |  |  | 
CCOc1ccccc1Nc1ncc(C(=O)O)c(=O)[nH]1 [Example 48, 1,6-dihydro-2-(2-ethoxyanilino)-6-oxo-5-pyrimidinecarboxylic acid] |  |  | 20.2 | 98 | > 3000 | > 500 |  |  | 
CCCOc1ccccc1Nc1ncc(C(=O)O)c(=O)[nH]1 [Example 49, 1,6-dihydro-2-(2-propoxyanilino)-6-oxo-5-pyrimidinecarboxylic acid] | 3.31 | 97.3 | 11 | 22.2 | > 3000 | 1160 | 17.9 | 8.1 | 
CC(C)Oc1ccccc1Nc1ncc(C(=O)O)c(=O)[nH]1 [Example 50, 1,6-dihydro-2-[b 2-(1-methylethoxy)anilino]-6-oxo-5-pyrimidinecarboxylic acid] |  |  | 13 | 75 |  |  |  |  | 
CCCCOc1ccccc1Nc1ncc(C(=O)O)c(=O)[nH]1 [Example 51, 1,6-dihydro-2-(2-butoxyanilino)-6-oxo-5-pyrimidinecarboxylic acid] |  |  | 10.7 | 92 | > 3000 | 1230 |  |  | 
CC(C)COc1ccccc1Nc1ncc(C(=O)O)c(=O)[nH]1 [Example 52, 1,6-dihydro-2-[2-(2-methylpropoxy)anilino]-6-oxo-5-pyrimidinecarboxylic acid] | 3.81 |  | 4.7 | 39 | > 3000 | 780 | 87.9 | 26.2 | 12.2
COc1ccc(/C=C/C(=O)Nc2ccccc2C(=O)O)cc1OC [Tranilast, reference compound] | < 3.00 | 48.2 | 40 | 110 | 780 | 430 | 32.4 | 23.5 | 

— patent publication US4666915A, “2-anilino-1,6-dihydro-6-oxo-5-pyrimidine-carboxylic acid derivatives, process for the preparation thereof, and antiallergic agent containing the same” (Morishita Pharmaceutical Co. Ltd., priority 1984, dated 1987)
